In patent publication US20090142347A1, “Tissue-Nonspecific Alkaline Phosphatase (TNAP): a Therapeutic Target for Arterial Calcification” (THE BURNHAM INSTITUTE FOR MEDICAL RESEARCH, priority 2004, published 2009):
Read-outs that look alike come from different tables or passages of the source.

Legend:
[1] = biological target: Recombinant human FLAG-TNAP (Homo sapiens, UniProt P05186); assay: Chemical library screening, TNAP pNPP microtiter plate assay; settings: for inhibition response: positive controls, 0.5 mM pNPP, pH 9.8, concentration not given
Sequence of Recombinant human FLAG-TNAP (P05186 18-501 limits assumed): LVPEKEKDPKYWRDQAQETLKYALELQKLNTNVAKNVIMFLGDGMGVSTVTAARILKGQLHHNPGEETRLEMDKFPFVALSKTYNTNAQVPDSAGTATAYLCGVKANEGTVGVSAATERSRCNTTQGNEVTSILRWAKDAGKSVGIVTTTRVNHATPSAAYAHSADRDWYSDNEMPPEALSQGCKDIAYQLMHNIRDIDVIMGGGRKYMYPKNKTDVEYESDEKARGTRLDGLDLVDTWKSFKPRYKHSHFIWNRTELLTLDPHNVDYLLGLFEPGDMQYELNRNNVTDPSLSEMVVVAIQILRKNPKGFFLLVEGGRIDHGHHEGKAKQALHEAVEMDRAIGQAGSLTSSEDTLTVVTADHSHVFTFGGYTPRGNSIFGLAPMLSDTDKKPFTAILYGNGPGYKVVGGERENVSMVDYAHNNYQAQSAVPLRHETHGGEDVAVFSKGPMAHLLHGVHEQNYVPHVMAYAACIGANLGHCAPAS

hPLALP D165 = biological target: T1, hPLALP D165 (Homo sapiens, UniProt P05187, N187D); assay: Ki of uncompetitive inhibitors (pNPP substrate); format: biochemical; settings: hPLALP mutant D165; read-out: Ki for various inhibitors
T1 construct: made in house; host or cells: COS-7 (given only for the TNAP-Flag constructs)
T1 sequence (P05187 23-506 N187D limits assumed): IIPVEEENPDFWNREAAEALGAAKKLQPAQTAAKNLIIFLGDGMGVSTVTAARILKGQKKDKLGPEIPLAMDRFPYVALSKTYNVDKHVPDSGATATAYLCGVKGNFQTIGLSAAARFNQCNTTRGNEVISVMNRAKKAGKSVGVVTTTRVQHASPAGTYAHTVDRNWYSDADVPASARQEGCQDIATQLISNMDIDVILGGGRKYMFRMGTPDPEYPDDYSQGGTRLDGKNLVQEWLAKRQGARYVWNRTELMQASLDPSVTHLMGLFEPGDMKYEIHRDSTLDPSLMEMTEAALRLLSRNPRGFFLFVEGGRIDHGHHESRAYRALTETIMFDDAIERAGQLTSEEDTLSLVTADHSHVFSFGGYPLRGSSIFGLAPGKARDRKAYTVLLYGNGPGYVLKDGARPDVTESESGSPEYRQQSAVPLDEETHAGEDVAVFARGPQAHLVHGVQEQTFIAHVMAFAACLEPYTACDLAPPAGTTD
Procedure: (§1) In brief, samples of the enzymes were added to microtiter plates coated with M2 anti-FLAG antibody, and saturating activities with the substrate pNPP were measured in 1 M DEA/HCl buffer, pH 9.8, containing 1 mM MgCl2 and 20 .micro.M ZnCl2.

hPLALP (G108, G429) = biological target: T2, hPLALP (G108, G429) (Homo sapiens, UniProt P05187, E451G/Q130G); assay: Ki of uncompetitive inhibitors (pNPP substrate); format: biochemical; settings: hPLALP mutant (G108, G429); read-out: Ki for various inhibitors
T2 construct: made in house; host or cells: COS-7 (given only for the TNAP-Flag constructs)
T2 sequence (P05187 23-506 Q130G/E451G limits assumed): as the sequence (P05187 23-506 N187D limits assumed) above, with Q108G, D165N, E429G counted along it
Procedure: as §1

hPLALP R428 = biological target: T3, hPLALP R428 (Homo sapiens, UniProt P05187, D450R); assay: Ki of uncompetitive inhibitors (pNPP substrate); format: biochemical; settings: hPLALP mutant R428; read-out: Ki for various inhibitors
T3 construct: made in house; host or cells: COS-7 (given only for the TNAP-Flag constructs)
T3 sequence (P05187 23-506 D450R limits assumed): as the sequence (P05187 23-506 N187D limits assumed) above, with D165N, D428R counted along it
Procedure: as §1

hPLALP S119 = biological target: T4, hPLALP S119 (Homo sapiens, UniProt P05187, N141S); assay: Ki of uncompetitive inhibitors (pNPP substrate); format: biochemical; settings: hPLALP mutant S119; read-out: Ki for various inhibitors
T4 construct: made in house; host or cells: COS-7 (given only for the TNAP-Flag constructs)
T4 sequence (P05187 23-506 N141S limits assumed): as the sequence (P05187 23-506 N187D limits assumed) above, with N119S, D165N counted along it
Procedure: as §1

hPLALP (E107, G108) = biological target: T5, hPLALP (E107, G108) (Homo sapiens, UniProt P05187, F129E/Q130G); assay: Ki of uncompetitive inhibitors (pNPP substrate); format: biochemical; settings: hPLALP mutant (E107, G108); read-out: Ki for various inhibitors
T5 construct: made in house; host or cells: COS-7 (given only for the TNAP-Flag constructs)
T5 sequence (P05187 23-506 F129E/Q130G limits assumed): as the sequence (P05187 23-506 N187D limits assumed) above, with F107E, Q108G, D165N counted along it
Procedure: as §1

hPLALP E107 = biological target: T6, hPLALP E107 (Homo sapiens, UniProt P05187, F129E); assay: Ki of uncompetitive inhibitors (pNPP substrate); format: biochemical; settings: hPLALP mutant E107; read-out: Ki for various inhibitors
T6 construct: made in house
T6 sequence (P05187 23-506 F129E limits assumed): as the sequence (P05187 23-506 N187D limits assumed) above, with F107E, D165N counted along it
Procedure: as §1

hPLALP (R428, H429) = biological target: T7, hPLALP (R428, H429) (Homo sapiens, UniProt P05187, D450R/E451H); assay: Ki of uncompetitive inhibitors (pNPP substrate); format: biochemical; settings: hPLALP mutant (R428, H429); read-out: Ki for various inhibitors
T7 construct: made in house; host or cells: COS-7 (given only for the TNAP-Flag constructs)
T7 sequence (P05187 23-506 D450R/E451H limits assumed): as the sequence (P05187 23-506 N187D limits assumed) above, with D165N, D428R, E429H counted along it
Procedure: as §1

hPLALP = biological target: T8, hPLALP (Homo sapiens, UniProt P05187); assay: Ki of uncompetitive inhibitors (pNPP substrate); format: biochemical; settings: read-out: Ki for various inhibitors
T8 construct: made in house
T8 sequence (P05187 23-506 limits assumed): as the sequence (P05187 23-506 N187D limits assumed) above, with D165N counted along it
Procedure: as §1

hPLALP H429 = biological target: T9, hPLALP H429 (Homo sapiens, UniProt P05187, E451H); assay: Ki of uncompetitive inhibitors (pNPP substrate); format: biochemical; settings: hPLALP mutant H429; read-out: Ki for various inhibitors
T9 construct: made in house; host or cells: COS-7 (given only for the TNAP-Flag constructs)
T9 sequence (P05187 23-506 E451H limits assumed): as the sequence (P05187 23-506 N187D limits assumed) above, with D165N, E429H counted along it
Procedure: as §1

hPLALP G108 = biological target: T10, hPLALP G108 (Homo sapiens, UniProt P05187, Q130G); assay: Ki of uncompetitive inhibitors (pNPP substrate); format: biochemical; settings: hPLALP mutant G108; read-out: Ki for various inhibitors
T10 construct: made in house; host or cells: COS-7 (given only for the TNAP-Flag constructs)
T10 sequence (P05187 23-506 Q130G limits assumed): as the sequence (P05187 23-506 N187D limits assumed) above, with Q108G, D165N counted along it
Procedure: as §1

hPLALP (E107, G429) = biological target: T11, hPLALP (E107, G429) (Homo sapiens, UniProt P05187, E451G/F129E); assay: Ki of uncompetitive inhibitors (pNPP substrate); format: biochemical; settings: hPLALP mutant (E107, G429); read-out: Ki for various inhibitors
T11 construct: made in house; host or cells: COS-7 (given only for the TNAP-Flag constructs)
T11 sequence (P05187 23-506 F129E/E451G limits assumed): as the sequence (P05187 23-506 N187D limits assumed) above, with F107E, D165N, E429G counted along it
Procedure: as §1

[2] = tested on: bovine VSMC calcification; settings: Shioi et al., 1995; cited from earlier work
chTNALP = biological target: T12, chTNALP (Gallus gallus, UniProt Q92058); assay: Ki of uncompetitive inhibitors (pNPP substrate); format: biochemical, chicken
T12 sequence (Q92058 17-498): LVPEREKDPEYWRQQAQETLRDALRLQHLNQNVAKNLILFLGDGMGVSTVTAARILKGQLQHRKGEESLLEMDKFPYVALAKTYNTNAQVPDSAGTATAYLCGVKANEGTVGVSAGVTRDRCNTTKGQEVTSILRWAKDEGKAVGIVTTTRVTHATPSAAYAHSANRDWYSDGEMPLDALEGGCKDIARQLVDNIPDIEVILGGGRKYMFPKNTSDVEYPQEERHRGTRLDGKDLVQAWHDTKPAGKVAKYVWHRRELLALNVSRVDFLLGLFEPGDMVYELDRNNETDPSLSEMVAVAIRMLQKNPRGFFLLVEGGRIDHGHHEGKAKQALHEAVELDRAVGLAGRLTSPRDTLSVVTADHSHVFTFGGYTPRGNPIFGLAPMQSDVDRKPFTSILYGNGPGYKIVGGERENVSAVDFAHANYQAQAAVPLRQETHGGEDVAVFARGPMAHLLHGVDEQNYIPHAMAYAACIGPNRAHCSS
Excerpt: (See Kozlenkov A, et al., 2002). […] TNAP and PLAP structures were superimposed and the amino acid differences within a 12 Å radius around the catalytic Zn1 ion were pinpointed. The difference between human TNAP and chicken TNAP were also mapped because it is reported that chicken TNAP is much less susceptible to levamisol than is human TNAP. In total, six positions with amino acid differences were found, which could be clustered into two groups. […] In addition, […] and […] were also investigated.

wild-type osteoblasts = wild-type osteoblasts treated with exogenous PPi; RT-PCR
Excerpt: To determine whether affecting the function of either NPP1 or ANK would have beneficial consequences on hypophosphatasia by reducing the amounts of extracellular PPi in the Akp2−/− mice, we bred either Enpp1−/− or ank/ank mice to the Akp2−/− mice. […] Hypophosphatasia arises from deficits in TNAP activity, resulting in an increase in PPi levels and concomitant increase in OPN levels.

Akp2−/− mice = settings: Narisawa et al., 2001; cited from earlier work
[3] = tested on: TNAP activity in Enpp1−/− and ank/ank derived VSMC; settings: Enpp1−/− and ank/ank derived VSMC in vitro, tetramisole 0.125 mM, 3 weeks (FIG. 5)
Excerpt: Left panel: A) immunofluorscent detection of smooth muscle alpha-actin. VSMCs were isolated from WT aorta by collagenase digestion, all cells were stained for actin filaments (F-actin) by rhodamine phalloidin (red), and VSMCs were stained using a specific FITC-conjugated monoclonal anti-SM-alpha-actin (green). B) Proportion of cells staining positive for SM-alpha-actin. C) Total RNA was isolated and SM alpha-actin was detected by RT-PCR analysis. Middle panel: VSMCs isolated from WT, Enpp1−/− and ank/ank mice were cultured in the presence of beta-glycerophosphate for 4 weeks. Cells were then stained for TNAP activity (pink) and using von Kossa staining, mineral was detected (black/brown). The area of the culture well in which mineralization was present was quantified by using a point-counting method in which the plate was placed on a grid (divided into 10 mm×10 mm squares) and visualized using a dissecting microscope, the percent area occupied by mineral was assessed by counting the occurrences where the presence of mineral coincided with intercepts on the grid.

[4] = tested on: Enpp1−/− and ank/ank mice; settings: subcutaneous, ALZET osmotic pumps, 10 μg/g/day, compared to control mice
Procedure: Flexibility was measured after euthanasia by determining the degree to which the root of the tail could be pulled back towards the neck, shoulders or lumbar spine until resistance prevented further flexing.
Tetramisole was delivered via ALZET osmotic pumps (Durect Corporation, Cupertino, Calif.) at a dose of 10 μg/g/day.

MC3T3-E1 cells = tested on: MC3T3-E1 cells
Excerpt: (§2) In one example of this pharmacological study tetramisole will be used. […] For ApoE−/− mice arterial calcification is established by 3-months of age. Thus, the pump can feasibly be planted as early as 1-month of age, allowing treatment to begin at least as early.

[5] = dose of 30 micrograms/g BW; results not shown
Excerpt: as §2

## c1ccc([C@H]2CN3CCSC3=N2)cc1 [Levamisole]
[1]
  inhibition response: around 50%
[1]; screen of 53,080 compounds
  inhibition of the enzymatic activity of TNAP (confirmed screening hits): inhibit the enzymatic activity of TNAP
hPLALP D165
  Ki: 680 ± 140 µM
hPLALP (G108, G429)
  Ki: 480 ± 60 µM
hPLALP R428
  Ki: 460 ± 40 µM
hPLALP S119
  Ki: 630 ± 90 µM
hPLALP (E107, G108)
  Ki: 1150 ± 60 µM
hPLALP E107
  Ki: 1050 ± 40 µM
hPLALP (R428, H429)
  Ki: 34 ± 1 µM
hPLALP
  Ki: 563 ± 56 µM
hPLALP H429
  Ki: 50 ± 3 µM
hPLALP G108
  Ki: 458 ± 30 µM
hPLALP (E107, G429)
  Ki: 535 ± 80 µM
[2]
  bovine VSMC calcification: blocks bovine VSMC calcification in a dose-dependent manner
chTNALP; read-out: Ki for various inhibitors
  Ki: 136 ± 20 µM

## O=P(O)(O)OP(=O)(O)O [PPi, Inorganic pyrophosphate]
wild-type osteoblasts
  NPP1 and ANK expression: decreased NPP1 and ANK expression
  OPN expression: increase in OPN expression

## Cn1c(=O)c2[nH]cnc2n(C)c1=O [Theophylline, theophylline]
chTNALP; Ki for various inhibitors, (1)*, (1)*: 1 mM pNPP
  Ki: 393 ± 150 µM
chTNALP; Ki for various inhibitors, (20)*, (20)*: 20 mM pNPP
  Ki: 111 ± 8 µM

## Cc1ncc(CO)c(C=O)c1O [pyridoxal]
Akp2−/− mice
  apoptosis in the thymus and the lumbar nerve roots: reverses apoptosis
  epileptic seizures: suppresses the epileptic seizures

## c1ccc(C2CN3CCSC3=N2)cc1 (stereo not drawn) [tetramisole]
[3]
  TNAP activity in VSMC: inhibits TNAP activity
[3]; listed as Tetramisole
  TNAP activity in VSMC: normalize TNAP activity
[4]
  flexibility of the spine: enhanced flexibility of the spine
MC3T3-E1 cells
  PPi levels: raise PPi levels
[5]
  tolerability: well tolerated

## phosphate
[1]
  inhibition response: around 50%
